Tests used:
HCC1937 [1] = assay: Antiproliferative activity against human HCC1937 cells assessed as inhibition of cell growth incubated for 48 hrs by MTT assay; assay type: functional, cell-based; settings: HCC1937, 48 h
SUM149PT [2] = assay: Antiproliferative activity against human SUM149PT cells assessed as inhibition of cell growth at 5 uM incubated for 48 hrs by MTT assay relative to control; assay type: functional
HCC1937 [3] = assay: Antiproliferative activity against human HCC1937 cells assessed as inhibition of cell growth at 20 uM incubated for 48 hrs by MTT assay relative to control; assay type: functional
CAPAN-1 [4] = assay: Antiproliferative activity against human CAPAN-1 cells assessed as inhibition of cell growth at 20 uM incubated for 48 hrs by MTT assay relative to control; assay type: functional
CAPAN-1 [5] = assay: Antiproliferative activity against human CAPAN-1 cells assessed as inhibition of cell growth at 5 uM incubated for 48 hrs by MTT assay relative to control; assay type: functional
[6] = molecular target: Poly [ADP-ribose] polymerase 1 (Homo sapiens, UniProt P09874); assay: Inhibition of PARP-1 in human SUM149PT cells incubated for 48 hrs by HRP-ELISA; assay type: cell-based
Chain of Poly [ADP-ribose] polymerase 1 (P09874 whole entry): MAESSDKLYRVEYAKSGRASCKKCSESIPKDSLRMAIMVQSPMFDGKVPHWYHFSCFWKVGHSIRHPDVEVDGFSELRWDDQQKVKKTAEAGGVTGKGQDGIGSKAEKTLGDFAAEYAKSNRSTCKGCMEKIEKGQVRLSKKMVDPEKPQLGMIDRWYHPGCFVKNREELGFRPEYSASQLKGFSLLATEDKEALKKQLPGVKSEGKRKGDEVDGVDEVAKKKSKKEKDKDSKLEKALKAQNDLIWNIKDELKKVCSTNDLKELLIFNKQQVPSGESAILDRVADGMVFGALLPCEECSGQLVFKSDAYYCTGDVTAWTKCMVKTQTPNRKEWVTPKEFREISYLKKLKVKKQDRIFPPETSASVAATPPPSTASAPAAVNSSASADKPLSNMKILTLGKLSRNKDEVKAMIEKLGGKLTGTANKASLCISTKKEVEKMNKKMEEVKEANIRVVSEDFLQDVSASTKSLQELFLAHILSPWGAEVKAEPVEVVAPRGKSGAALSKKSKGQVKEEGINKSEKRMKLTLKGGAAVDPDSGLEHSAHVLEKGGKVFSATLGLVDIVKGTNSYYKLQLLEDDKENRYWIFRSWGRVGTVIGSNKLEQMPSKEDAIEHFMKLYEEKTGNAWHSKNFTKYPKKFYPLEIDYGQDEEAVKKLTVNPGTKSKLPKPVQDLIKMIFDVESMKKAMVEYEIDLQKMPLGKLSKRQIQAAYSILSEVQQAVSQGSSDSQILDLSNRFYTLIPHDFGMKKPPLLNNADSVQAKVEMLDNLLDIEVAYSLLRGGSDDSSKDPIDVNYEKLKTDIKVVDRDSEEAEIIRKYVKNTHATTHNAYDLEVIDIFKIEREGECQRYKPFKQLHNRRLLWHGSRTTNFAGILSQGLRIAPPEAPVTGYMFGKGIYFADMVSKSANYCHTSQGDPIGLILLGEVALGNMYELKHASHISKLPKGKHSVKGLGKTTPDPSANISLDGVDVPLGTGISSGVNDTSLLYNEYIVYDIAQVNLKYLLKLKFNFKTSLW

SUM149PT [7] = assay: Induction of DNA double strand breaks in human SUM149PT cells assessed as increase in gamma-H2AX level in nucleus incubated for 48 hrs by immunofluorescence analysis; assay type: functional, cell-based
SUM149PT [8] = assay: Induction of ROS in human SUM149PT cells assessed as increase in fluorescence intensity incubated for 48 hrs by DCFH-DA staining based confocal laser scanning microscopic analysis; assay type: functional, cell-based
SUM149PT [9] = assay: Induction of cell cycle arrest in human SUM149PT cells assessed as accumulation of cells at G0/G1 phase at 0.5 uM incubated for 24 hrs by propidium iodide/RNase A staining based flow cytometry (reference value: 72.8 %); assay type: functional
SUM149PT [10] = assay: Induction of cell cycle arrest in human SUM149PT cells assessed as accumulation of cells at S phase at 0.5 uM incubated for 24 hrs by propidium iodide/RNase A staining based flow cytometry (reference value: 16.4 %); assay type: functional
SUM149PT [11] = assay: Induction of cell cycle arrest in human SUM149PT cells assessed as accumulation of cells at G2/M phase at 0.5 uM incubated for 24 hrs by propidium iodide/RNase A staining based flow cytometry (reference value: 5.54 %); assay type: functional
SUM149PT [12] = assay: Induction of cell cycle arrest in human SUM149PT cells assessed as accumulation of cells at G0/G1 phase at 2 uM incubated for 24 hrs by propidium iodide/RNase A staining based flow cytometry (reference value: 72.8 %); assay type: functional
SUM149PT [13] = assay: Induction of cell cycle arrest in human SUM149PT cells assessed as accumulation of cells at G2/M phase at 2 uM incubated for 24 hrs by propidium iodide/RNase A staining based flow cytometry (reference value: 5.54 %); assay type: functional
SUM149PT [14] = assay: Induction of cell cycle arrest in human SUM149PT cells assessed as accumulation of cells at S phase at 0.5 uM incubated for 48 hrs by propidium iodide/RNase A staining based flow cytometry (reference value: 18.7 %); assay type: functional
SUM149PT [15] = assay: Induction of cell cycle arrest in human SUM149PT cells assessed as accumulation of cells at G0/G1 phase at 2 uM incubated for 48 hrs by propidium iodide/RNase A staining based flow cytometry (reference value: 69.2 %); assay type: functional
SUM149PT [16] = assay: Induction of apoptosis in human SUM149PT cells assessed as early apoptotic cells at 0.1 uM incubated for 24 hrs by Annexin V-FITC/PI staining based flow cytometry (reference value: 2.59 %); assay type: functional
SUM149PT [17] = assay: Induction of apoptosis in human SUM149PT cells assessed as late apoptotic cells at 0.1 uM incubated for 24 hrs by Annexin V-FITC/PI staining based flow cytometry (reference value: 2.45 %); assay type: functional
SUM149PT [18] = assay: Induction of apoptosis in human SUM149PT cells assessed as necrotic cells at 0.1 uM incubated for 24 hrs by Annexin V-FITC/PI staining based flow cytometry (reference value: 1.27 %); assay type: functional
SUM149PT [19] = assay: Induction of apoptosis in human SUM149PT cells assessed as viable cells at 0.5 uM incubated for 24 hrs by Annexin V-FITC/PI staining based flow cytometry (reference value: 93.7 %); assay type: functional; settings: read-out: Activity
SUM149PT [20] = assay: Induction of apoptosis in human SUM149PT cells assessed as early apoptotic cells at 2 uM incubated for 24 hrs by Annexin V-FITC/PI staining based flow cytometry (reference value: 2.59 %); assay type: functional
SUM149PT [21] = assay: Induction of apoptosis in human SUM149PT cells assessed as late apoptotic cells at 2 uM incubated for 24 hrs by Annexin V-FITC/PI staining based flow cytometry (reference value: 2.45 %); assay type: functional
SUM149PT [22] = assay: Induction of apoptosis in human SUM149PT cells assessed as necrotic cells at 2 uM incubated for 24 hrs by Annexin V-FITC/PI staining based flow cytometry (reference value: 1.27 %); assay type: functional
SUM149PT [23] = assay: Induction of apoptosis in human SUM149PT cells assessed as late apoptotic cells at 0.1 uM incubated for 48 hrs by Annexin V-FITC/PI staining based flow cytometry (reference value: 1.13 %); assay type: functional
SUM149PT [24] = assay: Induction of apoptosis in human SUM149PT cells assessed as necrotic cells at 0.1 uM incubated for 48 hrs by Annexin V-FITC/PI staining based flow cytometry (reference value: 0.51 %); assay type: functional
SUM149PT [25] = assay: Induction of apoptosis in human SUM149PT cells assessed as viable cells at 2 uM incubated for 48 hrs by Annexin V-FITC/PI staining based flow cytometry (reference value: 96.1 %); assay type: functional; settings: read-out: Activity
SUM149PT [26] = assay: Induction of apoptosis in human SUM149PT cells assessed as late apoptotic cells at 2 uM incubated for 48 hrs by Annexin V-FITC/PI staining based flow cytometry (reference value: 1.13 %); assay type: functional
SUM149PT [27] = assay: Induction of apoptosis in human SUM149PT cells assessed as necrotic cells at 2 uM incubated for 48 hrs by Annexin V-FITC/PI staining based flow cytometry (reference value: 0.51 %); assay type: functional
SUM149PT [28] = assay: Induction of apoptosis in human SUM149PT cells assessed as upregulation of caspase-3 expression incubated for 48 hrs by Western blotting analysis; assay type: functional, cell-based
SUM149PT [29] = assay: Induction of apoptosis in human SUM149PT cells assessed as upregulation of cleaved caspase-3 expression incubated for 48 hrs by Western blotting analysis; assay type: functional, cell-based
MDA-MB-436 = assay: Antiproliferative activity against human MDA-MB-436 cells assessed as inhibition of cell growth at 20 uM incubated for 48 hrs by MTT assay relative to control; assay type: functional

IC50 (HCC1937 [1]): 1910 nM
IC50 [6]: 2.53 nM
SMILES: COc1cccc(-c2cc3cc(F)cc(C(N)=O)c3oc2=O)c1
inhibition at 5 µM (SUM149PT [2]): > 70%
inhibition at 20 µM (HCC1937 [3]): > 60%
inhibition at 20 µM (CAPAN-1 [4]): > 60%
inhibition at 5 µM (CAPAN-1 [5]): > 50%
Activity (SUM149PT [7]): Dose-dependent-effect
Activity (SUM149PT [8]): Dose-dependent-effect
Activity (SUM149PT [9]): 64.3%
Activity (SUM149PT [10]): 17.4%
Activity (SUM149PT [11]): 22.3%
Activity (SUM149PT [12]): 39.9%
Activity (SUM149PT [13]): 36.8%
Activity (SUM149PT [14]): 25.3%
Activity (SUM149PT [15]): 16.9%
Activity (SUM149PT [16]): 3.96%
Activity (SUM149PT [17]): 2.69%
Activity (SUM149PT [18]): 1.86%
viability at 0.5 µM (SUM149PT [19]): 86.6%
Activity (SUM149PT [20]): 9.8%
Activity (SUM149PT [21]): 6.87%
Activity (SUM149PT [22]): 6.61%
Activity (SUM149PT [23]): 6%
Activity (SUM149PT [24]): 1.22%
viability at 2 µM (SUM149PT [25]): 61%
Activity (SUM149PT [26]): 6.85%
Activity (SUM149PT [27]): 2.61%
Activity (SUM149PT [28]): Dose-dependent-effect
Activity (SUM149PT [29]): Dose-dependent-effect
inhibition at 20 µM (MDA-MB-436): < 40%

Source: ChEMBL document CHEMBL6074623, “Carbamoylation at C-8 position of natural 3-arylcoumarin scaffold for the discovery of novel PARP-1 inhibitors with potent anticancer activity” (Eur J Med Chem, 2024)
